≈ marks a conversion by molar mass, not a printed value. Read-outs that look alike come from different tables or passages of the source.

Consider 15 molecules from patent US20070191333A1, “Antibacterial agents” (Warner Lambert Company LLC, priority 2003, published 2007).

Common to all, as to assay type: cell-based
The test system of assay [1] is E. coli 2026. Kind of assay: Antibacterial microtitration MIC, E. coli 2026. Particulars: strain 2026; for MIC: read-out: Minimum Inhibitory Concentrations E. coli 2026. On the procedure: (§1) Test A—Antibacterial Assays The compounds of the present invention were tested against an assortment of Gram-negative and Gram-positive organisms using standard microtitration techniques (Cohen et. al., Antimicrob., 1985; 28:766; Heifetz, et. al., Antimicrob., 1974; 6:124).

The test system of assay [2] is H. influenzae HI-3542. Kind of assay: Antibacterial microtitration MIC, H. influenzae HI-3542. The following applies: strain HI-3542; for MIC: Haemophilus influenzae, HI3542, Gram Negative Bacteria, read-out: Minimum Inhibitory Concentrations H. influenzae HI-3542; for Minimum Inhibitory Concentrations H. influenzae HI-3542: Gram Negative Bacteria. The protocol: as §1

Assay [3] concerns M. catarrhalis BC-3531. Kind of assay: Antibacterial microtitration MIC, M. catarrhalis BC-3531. The following applies: strain BC-3531; for MIC: Moraxella catarrhalis, BC3531, Gram Negative Bacteria, read-out: Minimum Inhibitory Concentrations M. catarrhalis BC-3531; for Minimum Inhibitory Concentrations M. catarrhalis BC-3531: Gram Negative Bacteria. The protocol: as §1
The mark [4] stands for this setting: Escherichia coli, Gram Negative Bacteria.
The mark [5] stands for this setting: Escherichia coli, 2026, Gram Negative Bacteria.

As to `Cc1c(N2CC[C@@H]([C@@H](N)CC#N)C2)c(F)cc2c(=O)[nH]c(=O)n(C3CC3)c12` (single isomer, unassigned) [drawing 391], in assay [1] (Gram Negative Bacteria), the “Minimum Inhibitory Concentrations E. coli 2026” value is 32 µg/mL. The MIC in assay [2] and in assay [3] was 4 µg/mL (≈ 10.8 µM) each time.

In the case of `COc1c(N2C[C@@H]3CCC(NCCC#N)[C@@H]3C2)c(F)cc2c(=O)n(N)c(=O)n(C3CC3)c12` (stereo partly drawn) [drawing 398], the MIC in assay [1] (setting [4]) came to 64 µg/mL (≈ 145 µM); in assay [2] it was 8 µg/mL (≈ 18.1 µM); in assay [3], 64 µg/mL (≈ 145 µM).

Turning to `COc1c(N2CC[C@@H]([C@H](C)NCCC#N)C2)c(F)cc2c(=O)[nH]c(=O)n(C3CC3)c12` (single isomer, unassigned) [drawing 401], the MIC in assay [1] (setting [5]), in assay [2] and in assay [3] was 64 µg/mL (≈ 154 µM) throughout.

As for `COc1c(N2CCC(C(N)CC#N)C2)c(F)cc2c(=O)n(N)c(=O)n(C3CC3)c12` (stereo not drawn) [drawing 393], the MIC in assay [1] (setting [5]) is 64 µg/mL (≈ 159 µM); in assay [2], 8 µg/mL (≈ 19.9 µM); in assay [3], 16 µg/mL (≈ 39.8 µM).

For the molecule `Cc1c(N2CC[C@@H](C(NCCC#N)c3ncco3)C2)c(F)cc2c(=O)n(N)c(=O)n(C3CC3)c12` (stereo partly drawn) [drawing 399], the values for the MIC in assay [1] (setting [4]), in assay [2] and in assay [3] were 16 µg/mL (≈ 34.2 µM), 4 µg/mL (≈ 8.56 µM) and 16 µg/mL (≈ 34.2 µM), respectively.

For the molecule `Cc1c(N2CCC(C(N)CC#N)C2)c(F)cc2c(=O)n(N)c(=O)n(C3CC3)c12` (stereo not drawn) [drawing 388], the MIC in assay [1] (setting [5]) came out at 8 µg/mL (≈ 20.7 µM); in assay [2], 2 µg/mL (≈ 5.18 µM); in assay [3], 0.5 µg/mL (≈ 1.29 µM).

`Cc1c(N2CC[C@@H]([C@H](C)NCCC#N)C2)c(F)cc2c(=O)n(N)c(=O)n(C3CC3)c12` (single isomer, unassigned) [drawing 394]: the figures for the MIC in assay [1] (setting [5]), in assay [2] and in assay [3] were 4 µg/mL (≈ 9.65 µM), 0.5 µg/mL (≈ 1.21 µM) and 1 µg/mL (≈ 2.41 µM), respectively.

For `Cc1c(N2CCC(C(N)C(C)(C)C#N)C2)c(F)cc2c(=O)n(N)c(=O)n(C3CC3)c12` (stereo not drawn) [drawing 403], the “Minimum Inhibitory Concentrations E. coli 2026” value in assay [1] (Gram Negative Bacteria) is 64 µg/mL. In addition, the “Minimum Inhibitory Concentrations H. influenzae HI-3542” value in assay [2] is 32 µg/mL. The “Minimum Inhibitory Concentrations M. catarrhalis BC-3531” value in assay [3] amounted to 16 µg/mL.

As for `Cc1c(N2CC[C@H]([C@H](N)CC#N)C2)c(F)cc2c(=O)n(N)c(=O)n(C3CC3)c12` (racemic) [drawing 389], the results for the MIC in assay [1] (setting [5]), in assay [2] and in assay [3] were 32 µg/mL (≈ 82.8 µM), 4 µg/mL (≈ 10.4 µM) and 16 µg/mL (≈ 41.4 µM), respectively.

Consider `Cc1c(N2CCC(C(N)C(C)(C)C#N)C2)c(F)cc2c(=O)n(N)c(=O)n(C3CC3)c12` (stereo not drawn) [drawing 402], for which the MIC turned out to be 64 µg/mL (≈ 154 µM) in assay [1] (setting [5]) and 32 µg/mL (≈ 77.2 µM) in assay [2]. Besides, in assay [3], the “Minimum Inhibitory Concentrations M. catarrhalis BC-3531” value was determined as 5.25 µg/mL.

For `Cc1c(N2CC[C@@H]([C@@H](N)CC#N)C2)c(F)cc2c(=O)n(N)c(=O)n(C3CC3)c12` (single isomer, unassigned) [drawing 390], the MIC is 8 µg/mL (≈ 20.7 µM) in assay [1] (setting [5]), 1 µg/mL (≈ 2.59 µM) in assay [2] and 2 µg/mL (≈ 5.18 µM) in assay [3].

For the molecule `Cc1c(N2C[C@@H](CNCCC#N)[C@H](C)C2)c(F)cc2c(=O)n(N)c(=O)n(C3CC3)c12` (stereo in doubt), the results for the MIC in assay [1] (setting [4]), in assay [2] and in assay [3] were 8 µg/mL (≈ 19.3 µM), 2 µg/mL (≈ 4.83 µM) and 4 µg/mL (≈ 9.65 µM), respectively.

Take `Cc1c(N2C[C@H](CNCCC#N)[C@@H](F)C2)c(F)cc2c(=O)n(N)c(=O)n(C3CC3)c12` (racemic) [drawing 397]: the MIC in assay [1] (setting [4]) came to 32 µg/mL (≈ 76.5 µM); in assay [2], 8 µg/mL (≈ 19.1 µM); in assay [3] it was 16 µg/mL (≈ 38.2 µM).

As for `Cc1c(N2CC[C@@H]([C@@H](N)CC#N)C2)c(F)cc2c(=O)[nH]c(=O)n(C3CC3)c12` (single isomer, unassigned) [drawing 392], the “Minimum Inhibitory Concentrations E. coli 2026” value in assay [1] (Gram Negative Bacteria) is 8 µg/mL. Also, the “Minimum Inhibitory Concentrations H. influenzae HI-3542” value in assay [2] is 2 µg/mL. For the same molecule, the “Minimum Inhibitory Concentrations M. catarrhalis BC-3531” value in assay [3] is 4 µg/mL.

On to `Cc1c(N2C[C@H](CNCCC#N)[C@@H](C)C2)c(F)cc2c(=O)n(N)c(=O)n(C3CC3)c12` (stereo in doubt), for which the MIC amounted to 8 µg/mL (≈ 19.3 µM) in assay [1] (setting [4]), 4 µg/mL (≈ 9.65 µM) in assay [2] and 4 µg/mL (≈ 9.65 µM) in assay [3].
